Test results: US8574563B2 (Bristol-Myers Squibb Company, priority 2006, dated 2013)
Where two headings read alike, the source gives them in different places.

Tested on: HCV 1b-377-neo replicon cells
Assay: HCV replicon assay, HCV 1b-377-neo replicon cells (1b FRET)
Type: cell-based, Hepatitis C virus genotype 1b
Details: HCV 1b-377-neo replicon cells, HCV 1b genotype, read-out: EC50 range against HCV 1b (Table 2, Range)
Outline: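 FRET-based replicon assay in HCV 1b-377-neo cells, including a comparison line carrying the NS5A Y2065H mutation that confers resistance to a reference compound.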

| Compound | EC50 (Hepatitis C virus) [nM] | EC50 [nM] |
| --- | --- | --- |
| CCC(C)[C@H](NC)C(=O)N1CCC[C@H]1c1nc(-c2ccc(-c3ccc(-c4cnc([C@@H]5CCCN5C(=O)[C@@H](NC)C(C)CC)[nH]4)cc3)cc2)c[nH]1 (stereo partly drawn) [Example F33, (2S)-N,3-dimethyl-1-((2S)-2-(4-(4′-(2-((2S)-1-((2S)-3-methyl-2-(methylamino)pentanoyl)-2-pyrrolidinyl)-1H-imidazol-5-yl)-4-biphenylyl)-1H-imidazol-2-yl)-1-pyrrolidinyl)-1-oxo-2-pentanamine] | 100 to 999 |  |
| C[C@H](NC(=O)[C@@H](c1ccccc1)N(C)C)c1ncc(-c2ccc(-c3ccc(-c4cnc([C@H](C)NC(=O)[C@@H](c5ccccc5)N(C)C)[nH]4)cn3)cc2)[nH]1 [Example 152j-24, (2R)-2-(dimethylamino)-N-((1S)-1-(5-(6-(4-(2-((1S)-1-(((2R)-2-(dimethylamino)-2-phenylacetyl)amino)ethyl)-1H-imidazol-5-yl)phenyl)-3-pyridinyl)-1H-imidazol-2-yl)ethyl)-2-phenylacetamide] | 0.001 to 0.999 |  |
| C[C@H](NS(C)(=O)=O)C(=O)N1CCC[C@H]1c1nc(-c2ccc(-c3ccc(-c4cnc([C@@H]5CCCN5C(=O)[C@H](C)NS(C)(=O)=O)[nH]4)cc3)cc2)c[nH]1 [Example F69, N-((1S)-1-methyl-2-((2S)-2-(5-(4′-(2-((2S)-1-(N-(methylsulfonyl)-L-alanyl)-2-pyrrolidinyl)-1H-imidazol-4-yl)-4-biphenylyl)-1H-imidazol-2-yl)-1-pyrrolidinyl)-2-oxoethyl)methanesulfonamide] | 100 to 999 |  |
| CCN(CC)[C@@H](C(=O)N1CCC[C@H]1c1ncc(-c2ccc(-c3ccc(-c4cnc([C@@H]5CCCN5C(=O)[C@@H](c5ccccc5)N(CC)CC)[nH]4)cc3)cc2)[nH]1)c1ccccc1 [Example 21, (1R,1′R)-2,2′-(4,4′-biphenyldiylbis(1H-imidazole-5,2-diyl(2S)-2,1-pyrrolidinediyl))bis(N,N-diethyl-2-oxo-1-phenylethanamine)] | 0.001 to 0.999 |  |
| CCN(CC)[C@H](C)C(=O)N1CCC[C@H]1c1ncc(-c2ccc(-c3ccc(-c4cnc([C@@H]5CCCN5C(=O)[C@@H](NC(=O)OC)C(C)C)[nH]4)cc3)cc2)[nH]1 [Example M70, methyl ((1S)-1-(((2S)-2-(5-(4′-(2-((2S)-1-(N,N-diethyl-D-alanyl)-2-pyrrolidinyl)-1H-imidazol-5-yl)-4-biphenylyl)-1H-imidazol-2-yl)-1-pyrrolidinyl)carbonyl)-2-methylpropyl)carbamate] | 1 to 99 |  |
| COC(=O)N[C@H](C(=O)N1CCC[C@H]1c1ncc(-c2ccc(-c3ccc(-c4c[nH]c([C@@H]5CCCN5C(=O)[C@@H](NC(=O)OC)C5CC5)n4)c(F)c3)cc2F)[nH]1)C(C)C [Example D55, methyl ((1S)-1-cyclopropyl-2-((2S)-2-(5-(3,3,-difluoro-4′-(2-((2S)-1-(N-(methoxycarbonyl)-L-valyl)-2-pyrrolidinyl)-1H-imidazol-5-yl)-4-biphenylyl)-1H-imidazol-2-yl)-1-pyrrolidinyl)-2-oxoethyl)carbamate] | 0.001 to 0.999 |  |
| COC(=O)N[C@@H](C(=O)N1CCC[C@H]1c1ncc(-c2ccc(-c3ccc(-c4cnc([C@@H]5CCCN5C(=O)c5snnc5-c5ccccc5)[nH]4)cc3)cc2)[nH]1)c1ccccc1 [Example 84-10, methyl ((1R)-2-oxo-1-phenyl-2-((2S)-2-(5-(4′-(2-((2S)-1-((4-phenyl-1,2,3-thiadiazol-5-yl)carbonyl)-2-pyrrolidinyl)-1H-imidazol-5-yl)-4-biphenylyl)-1H-imidazol-2-yl)-1-pyrrolidinyl)ethyl)carbamate] | 1 to 99 |  |
| COC(=O)N[C@@H](C(=O)N1CCC[C@H]1c1ncc(-c2ccc(-c3ccc(-c4cnc([C@@H]5CCCN5C(=O)COc5ccccc5OC)[nH]4)cc3)cc2)[nH]1)c1ccccc1 [Example 84-26, methyl ((1R)-2-((2S)-2-(5-(4′-(2-((2S)-1-((2-methoxyphenoxy)acetyl)-2-pyrrolidinyl)-1H-imidazol-5-yl)-4-biphenylyl)-1H-imidazol-2-yl)-1-pyrrolidinyl)-2-oxo-1-phenylethyl)carbamate] | 0.001 to 0.999 |  |
| O=C([C@H](O)Cc1ccccc1)N1CCC[C@H]1c1ncc(-c2ccc(-c3ccc(-c4cnc([C@@H]5CCCN5C(=O)[C@H](O)Cc5ccccc5)[nH]4)cc3)cc2)[nH]1 [Example 9, (2R,2′R)-1,1′-(4,4′-biphenyldiylbis(1H-imidazole-5,2-diyl(2S)-2,1-pyrrolidindiyl))bis(1-oxo-3-phenyl-2-propanol)] | 1 to 99 |  |
| CCN(CC)[C@@H](C(=O)N1CCC[C@H]1c1ncc(-c2ccc(-c3ccc(-c4cnc([C@@H]5CCCN5C(=O)[C@@H]5COC(=O)N5)[nH]4)cc3)cc2)[nH]1)c1ccccc1 [Example M44, (4S)-4-(((2S)-2-(5-(4′-(2-((2S)-1-((2R)-2-(diethylamino)-2-phenylacetyl)-2-pyrrolidinyl)-1H-imidazol-5-yl)-4-biphenylyl)-1H-imidazol-2-yl)-1-pyrrolidinyl)carbonyl)-1,3-oxazolidin-2-one] | 100 to 999 |  |
| CN(C)[C@@H](C(=O)N1CCC[C@H]1c1ncc(-c2ccc(-c3ccc(-c4cnc([C@@H]5CCCN5C(=O)[C@H]5CCCCN5C(=O)OC(C)(C)C)[nH]4)cc3)cc2)[nH]1)c1ccccc1 [Example 94-20, tert-butyl (2R)-2-(((2S)-2-(5-(4′-(2-((2S)-1-((2R)-2-(dimethylamino)-2-phenylacetyl)-2-pyrrolidinyl)-1H-imidazol-5-yl)-4-biphenylyl)-1H-imidazol-2-yl)-1-pyrrolidinyl)carbonyl)-1-piperidinecarboxylate] | 1 to 99 |  |
| CCC[C@H](NC(=O)OC)C(=O)N1CCC[C@H]1c1ncc(-c2ccc(-c3ccc(-c4cnc([C@@H]5CCCN5C(=O)[C@H](CCC)NC(=O)OC)[nH]4)cc3)cc2)[nH]1 [Example M27, methyl ((1S)-1-(((2S)-2-(5-(4′-(2-((2S)-1-((2S)-2-((methoxycarbonyl)amino)pentanoyl)-2-pyrroldinyl)-1H-imidazol-5-yl)-4-biphenylyl)-1H-imidazol-2-yl)-1-pyrrolidinyl)carbonyl)butyl)carbamate] |  | 1 to 99 |
| COC(=O)N[C@@H](C(=O)N1CCC[C@H]1c1ncc(-c2ccc(-c3ccc(-c4cnc([C@@H]5CCCN5C(=O)Cc5csc(C)n5)[nH]4)cc3)cc2)[nH]1)c1ccccc1 [Example 84-72, methyl ((1R)-2-((2S)-2-(5-(4′-(2-((2S)-1-((2-methyl-1,3-thiazol-4-yl)acetyl)-2-pyrrolidinyl)-1H-imidazol-5-yl)-4-biphenylyl)-1H-imidazol-2-yl)-1-pyrrolidinyl)-2-oxo-1-phenylethyl)carbamate] | 1 to 99 |  |
| COC(=O)N[C@@H](C)C(=O)N1CCC[C@H]1c1ncc(-c2ccc(-c3ccc(-c4cnc([C@@H]5CCCN5C(=O)[C@@H](NC(=O)OC)C(C)C)[nH]4)c(F)c3)cc2F)[nH]1 [Example D57, methyl ((1S)-1-(((2S)-2-(5-(3,3′-difluoro-4′-(2-((2S)-1-(N-(methoxycarbonyl)-L-alanyl)-2-pyrrolidinyl)-1H-imidazol-5-yl)-4-biphenylyl)-1H-imidazol-2-yl)-1-pyrrolidinyl)carbonyl)-2-methylpropyl) carbamate] | 0.001 to 0.999 |  |
| C[C@H]1OC(=O)NC1C(=O)N1CCC[C@H]1c1ncc(-c2ccc(-c3ccc(-c4cnc([C@@H]5CCCN5C(=O)C5NC(=O)O[C@@H]5C)[nH]4)cc3)cc2)[nH]1 (stereo in doubt) [cj-133, (4S,5R,4′S,5′R)-4,4′-(4,4′-biphenyldiylbis(1H-imidazole-5,2-diyl(2S)-2,1-pyrrolidinediylcarbonyl))bis(5-methyl-1,3-oxazolidin-2-one)] | 1 to 99 |  |
| COC(=O)Cc1[nH]c([C@@H]2CCCN2C(=O)[C@@H](NC(=O)OC)[C@@H](C)OC)nc1-c1ccc(-c2ccc(-c3cnc([C@@H]4CCCN4C(=O)[C@@H](NC(=O)OC)[C@@H](C)OC)[nH]3)cc2)cc1 [Example J14b, methyl (2-((2S)-1-(N-(methoxycarbonyl)-O-methyl-L-threonyl)-2-pyrrolidinyl)-4-(4′-(2-((2S)-1-(N-(methoxycarbonyl)-O-methyl-L-threonyl)-2-pyrrolidinyl)-1H-imidazol-4-yl)-4-biphenylyl)-1H-imidazol-5-yl)acetate] | 0.001 to 0.999 |  |
| CN(C)CC(=O)N1CCC[C@H]1c1ncc(-c2ccc(-c3ccc(-c4cnc([C@@H]5CCCN5C(=O)CN(C)C)[nH]4)cc3)cc2)[nH]1 [Example 14, 2,2′-(4,4′-biphenyldiylbis(1H-imidazole-5,2-diyl(2S)-2,1-pyrrolidinediyl))bis(N,N-dimethyl-2-oxoethanamine)] | 100 to 999 |  |
| CCS(=O)(=O)N[C@H](C(=O)N1CCC[C@H]1c1nc(-c2ccc(-c3ccc(-c4c[nH]c([C@@H]5CCCN5C(=O)[C@@H](NS(=O)(=O)CC)C(C)C)n4)cc3)cc2)c[nH]1)C(C)C [Example F67, N-((1S)-1-(((2S)-2-(4-(4′-(2-((2S)-1-((2S)-2-((ethylsulfonyl)amino)-3-methylbutanoyl)-2-pyrrolidinyl)-1H-imidazol-4-yl)-4-biphenylyl)-1H-imidazol-2-yl)-1-pyrrolidinyl)carbonyl)-2-methylpropyl)ethanesulfonamide] | 1 to 99 |  |
| COC(=O)N[C@@H](C(=O)N1CCC[C@H]1c1ncc(-c2ccc(-c3ccc(-c4cnc([C@@H]5CCCN5C(=O)[C@H]5CCCO5)[nH]4)cn3)cc2)[nH]1)c1ccccc1 [Example 141, methyl ((1R)-2-oxo-1-phenyl-2-((2S)-2-(5-(4-(5-(2-((2S)-1((2R)-tetrahydro-2-furanylcarbonyl)-2-pyrrolidinyl)-1H-imidazol-5-yl)-2-pyridinyl)phenyl)-1H-imidazol-2-yl)-1-pyrrolidinyl)ethyl)carbamate] | 0.001 to 0.999 |  |
| COC(=O)N[C@@H](C(=O)N1CCC[C@H]1c1nc(-c2cc(-c3ccc(-c4cnc([C@@H]5CCCN5C(=O)[C@H](NC(=O)OC)c5ccccc5)[nH]4)cc3)ccc2OC)c[nH]1)c1ccccc1 [Example D34, dimethyl ((4-methoxy-3,4′-biphenyldiyl)bis(1H-imidazole-5,2-diyl(2S)-2,1-pyrrolidinediyl((1R)-2-oxo-1-phenyl-2,1-ethanediyl))) biscarbamate] | 0.001 to 0.999 |  |
